Source: patent US20240009182A1, “REPURPOSED COMPOUND AS THERAPEUTIC FOR HPV-ASSOCIATED CANCERS” (The Chinese University of Hong Kong, priority 2022, published 2024)

Tested on: HPV16 E7 protein in CaSki cells
Assay: HPV16 E7 protein level by western blotting in treated CaSki cells
Type: cell-based
Conditions: 15 μM, 24-hr treatment
From the text: FIG. 1A. The representative immunoblots showing the level of HPV16 E7 constitutively expressed in CaSki cells upon treatment with inhibitors specific for USP7 (P5091, FT671, GNE-6776 and HBX 19818) and that targeting pan-USPs (PR-619) at the indicated concentrations. DMSO served as a vehicle control treatment. Cells were then collected and lysed, the levels of USP7 and HPV16 E7 proteins were detected using the respective specific antibodies. Beta-actin (β-actin) was included as a loading control. KDa: kilodalton. FIG. 1B. The bar chart showing the relative protein level of HPV16 E7 normalized by β-actin (n=3). Data are expressed as mean±standard error of the mean (SEM); Right panel showing the images at 100× magnification of the morphology of the CaSki cells treated with P5091, FT671, GNE-6776, HBX 19818 and PR-619 at concentrations indicated. FIG. 1C. The immunoblots showing the levels of USP7 and HPV16 E7 proteins in CaSki and C-33A (an HPV-null cervical cancer cell line) upon downregulation of USP7 using siRNA targeting specifically against human USP7. FIG. 1D. The immunoblots showing the protein level of HPV16 E7 treated with different concentrations of HBX 19818. CaSki cells were treated with different concentrations of HBX 19818 or DMSO as indicated. Total cell lysates were subjected to western blotting using USP7, β-actin and HPV16 E7 specific antibodies. FIG. 1E. The bar chart showing the relative protein level of HPV16 E7 treated with different concentrations of HBX 19818 normalized by β-actin (n=3). Data are expressed as mean±SEM. FIG. 1F. The curve chart showing the level of E7 protein with increasing concentrations of HBX 19818 treatment. The percentage of HPV16 E7 protein level was analyzed using the non-linear regression function in GraphPad™ Prism 9. Error bars show standard errors of the mean (SEM). *: P<0.05; […]***: P<0.001.
Firstly, we screened four USP7-specific inhibitors (P5091, FT671. GNE-6776, and HBX 19818) and 1 pan-USPs inhibitor (PR-619) to characterize their inhibitory effect on E7 expression in HPV-containing cancer cells. We treated CaSki (HPV16-positive) cancer cells with P5091 at 5 μM and 10 μM; FT671, GNE-6776 and PR-619 at 3 μM and 15 μM; as well as HBX 19818 at 3 μM and 6 μM. These concentrations were chosen based on the reported IC50 values. After 24-hr treatment, the cells were collected, and total cell lysates were resolved by SDS-PAGE. The expression levels of USP7 and E7 were detected using respective specific antibodies.

## CCc1c(-c2ccc(C(=O)NC)nc2)cnc(N)c1-c1ccc(O)cc1 [GNE-6776]
  E7 protein level after inhibitor treatment: decreased the E7 protein level drastically
